{
  "source": "patent EP0934745B1",
  "about": "“Use of androsterone derivatives for inhibiting DNA binding of ap-1 and airway smooth muscle proliferation” (CHARLOTTE-MECKLENBURG HOSPITAL doing business as Carolinas …, priority 1998, dated 1999)",
  "test_system": "rat tracheal smooth muscle",
  "assay": "Proliferation of cultured airway smooth muscle (MTT reduction, cell counts)",
  "type": "cell-based",
  "settings": "Rattus norvegicus; 50,000 cells/well cultured in 10% FBS for 48 hours; MTT reduction (Figure 3D); read-out: 50% inhibitory concentration",
  "protocol": "Polyclonal horseradish peroxidase anti-rabbit IgG was from Transduction Laboratories (Lexington, KY). M-MLV reverse transcriptase was from Life Technologies (Gaithersburg, MD). All other materials were obtained from Sigma unless specified. Measurement of Cultured Airway Smooth Muscle Proliferation. Rat tracheal smooth muscle was cultured by euthanizing rats with pentobarbital overdose and removal of their tracheas. The posterior tracheal membrane was isolated, minced and digested twice for 30 minutes at 37°C. in HBSS containing 0.2% type IV collagenase and 0.05% type IV elastase. Each enzyme digest was collected and centrifuged for 5 minutes at 500 g at room temperature. The supernatant was removed and the pellet was resuspended in DMEM supplemented with 10% FBS, nonessential amino acids, penicillin (100 U/ml), streptomycin (100 µg/ml) and amphotericin (250 ng/ml). Cells were seeded in this medium into 25-cm^2 flasks at 2 x 10^5 cells per flask and incubated in a humidified atmosphere of 5% CO2/95% air at 37°C. Upon reaching confluence, cells were detached with 0.25% trypsin-0.002% EDTA solution for passage.\nProliferation of cultured airway smooth muscle was quantitated using modification of a previously reported colorimetric method based upon metabolic reduction of the soluble yellow tetrazolium dye 3-[4,5-dimethylthiazol]-2yl-2,5-diphenyl tetrazolium bromide (MTT) to its insoluble purple formazan by the action of mitochondrial succinyl dehydrogenase. See Hirst, S.J., Barnes, P.J., and Twort, C.H.C., \"Quantifying proliferation of cultured human and rabbit airway smooth muscle in response to serum and platelet derived growth factor,\" Am. J. Respir. Cell Mol. Biol., 7, 574-581 (1992). This assay empirically distinguishes between dead and living cells. For proliferation studies, cells were seeded into 24-well uncoated plastic plates at 15,000-50,000 cells per well and cultured with DMEM and mitogens. After 24-96 hours the medium was replaced with 1 ml/well fresh DMEM containing 100 µg/ml MTT and 0.5% FBS, and plates were incubated an additional hour MTT-containing medium was removed, cells were washed twice with 1 ml of sterile Dulbecco's modified phosphate buffered saline without Ca^2+ or Mg^2+ (DPBS), 0.5 ml dimethylsulfoxide (DMSO) was added to each well, and the absorbance of the solubilized purple formazan dye was measured at 540 nm on a Shimadzu UV160U spectrophotometer. A total of 4-6 wells was studied at each treatment condition.\nThe optimum concentration of FBS for use as a mitogenic stimulus was determined by incubating 15,000 cells per well with DMEM containing 0.25, 1.0, 5.0 or 10.0% FBS and MTT reduction was determined after 24, 48, 72 or 96 hours. […] After 24 hours, cells were washed twice with DPBS, fixed and permeabilized by two sequential 5 minute exposures to ice-cold methanol, stained with Giemsa-modified Wright's stain for 3 minutes and washed with DPBS. Cell counts were performed on 10 random fields at 40 power using a 0.01-cm^2 ocular grid. Cell Culture Treatments for Measurement of Airway Smooth Muscle Proliferation. The effect of dehydroepiandrosterone (DHEA) and 16α-bromoepiandrosterone (16α-BrEA) on cellular proliferation was studied in cultures stimulated with 0.5-10% FBS or 1-50 ng/ml recombinant human platelet derived growth factor (PDGF-AA). […] See, for example, the method of Le, Y. Y. , and Xu, R.B., \"The molecular mechanism of the action of the pharmacological doses of glucocorticoids. Studies on the low-affinity glucocorticoid receptor,\" Receptor, 5, 63-69 (1995).",
  "data": [
    {"smiles": "C[C@@H]1C[C@H]2[C@@H]3CCC4=CC(=O)C=C[C@]4(C)[C@@]3(F)[C@@H](O)C[C@]2(C)[C@@]1(O)C(=O)CO", "note": "[dexamethasone, reference compound]", "values": [
      {"measurement": "IC50", "value": 10, "unit": "µM"}
    ]}
  ]
}
